The test system of the experiment is SOX2. In words: Screen of a library of FDA-approved drugs for SOX2 antibody staining in A375 cells treated with PLX4720 and AZD6244. The conditions noted are these: for cor. loess: normalized and geometry-corrected (loess) signal; for norm: signal after plate normalization.
[1] abbreviates: A375 cells, 5 uM test drug with 1 uM PLX4720 and 0.5 uM AZD6244, 24 h.
Setting [2] is: A375 cells, 5 uM test drug with 1 uM PLX4720 and 0.5 uM AZD6244, 24 h, raw signal (ratio of FL2 SOX2 antibody and FL3 nuclear staining), screen run in duplicate.
The mark [3] stands for this setting: Z-test against negative controls (DMSO), single dose 5 uM.

Several values for one entry are separate records, joined by “and”; a condition that tells them apart may be missing. Equal entries are not always repeated. Structures can show the parent of a compound that is named as a salt. Where two headings read alike, the source gives them in different places.

With `CCCCN1CCCCC1C(=O)Nc1c(C)cccc1C` (centres unmarked) [BUPIVACAINE HYDROCHLORIDE], under setting [1], the cor. loess worked out at 0.2934 and the norm is 0.3196. The raw under setting [2] amounted to 0.9835. Besides, the z under setting [3] stood at 3.991.

For the molecule `CC(=O)OCC(=O)[C@@]1(O)[C@H](OC(C)=O)C[C@H]2[C@@H]3CCC4=CC(=O)C=C[C@]4(C)[C@@]3(F)[C@@H](O)C[C@@]21C` [TRIAMCINOLONE DIACETATE], under setting [1], the cor. loess worked out at 0.3964 and the norm was determined as 0.4506. In addition, the raw under setting [2] was 0.9794. Under setting [3], this molecule displayed a z of 4.238.

Under setting [1], `CN1CCN(c2c(F)cc3c(=O)c(C(=O)O)cn4c3c2SCC4)CC1` [RUFLOXACIN HYDROCHLORIDE] registered a cor. loess of 0.3991 and a norm of 0.4438. In addition, the raw under setting [2] amounted to 0.9796. Besides, the z under setting [3] was 4.267.

For `O=c1[nH]c(=O)n([C@H]2C[C@H](O)[C@@H](CO)O2)cc1I` [IDOXURIDINE], under setting [1], the cor. loess came to 0.715 and the norm came out at 0.7167. Moreover, the raw under setting [2] is 0.9726. Under setting [3], this molecule had a z of 6.136.

Under setting [1], `CC(=O)OCC(=O)[C@@]1(O)[C@H](C)C[C@H]2[C@@H]3CCC4=CC(=O)C=C[C@]4(C)[C@@]3(F)[C@@H](O)C[C@@]21C` [DEXAMETHASONE ACETATE] had a cor. loess of 0.4615 and a norm of 0.5088. The raw under setting [2] was 0.9769. Further, the z under setting [3] stood at 3.803.

Under setting [1], `COC(=O)Nc1nc2ccc(C(=O)c3cccs3)cc2[nH]1` [NOCODAZOLE] yielded a cor. loess of 0.5311 and a norm of 0.5009. Besides, the raw under setting [2] came to 0.9766. This molecule also displayed a z under setting [3] of 3.142.

Turning to `O=C1c2ccccc2C(=O)C1c1ccc(Cl)cc1` [CHLORINDIONE], under setting [1], the cor. loess came to 0.3463 and the norm was 0.2966. Further, under setting [2], the raw is given as 0.9825. Under setting [3], the z amounted to 3.839.

As to `O=[N+]([O-])C(Br)(CO)CO` [BRONOPOL], under setting [1], the cor. loess stood at 0.4507 and the norm was 0.4505. Further, the raw under setting [2] was 0.9779. Also, the z under setting [3] is reported as 4.996.

Under setting [1], `C[C@H]1O[C@@H](O[C@H]2[C@@H](O)C[C@H](O[C@H]3[C@@H](O)C[C@H](O[C@H]4CC[C@@]5(C)[C@H](CC[C@@H]6[C@@H]5CC[C@]5(C)[C@@H](C7=CC(=O)OC7)CC[C@]65O)C4)O[C@@H]3C)O[C@@H]2C)C[C@H](O)[C@@H]1O` [DIGITOXIN] returned a cor. loess of 1.488 and a norm of 1.549. The raw under setting [2] came to 0.9468. In addition, the z under setting [3] amounted to 12.26.

On to `CCS(=O)(=O)N1CCN(c2ccc(Nc3ncc(C(N)=O)c(NC4CC4)n3)cc2)CC1` [Cerdulatinib (PRT062070, PRT2070), Cerdulatinib], for which, under setting [1], the cor. loess is given as 0.4672 and the norm is recorded as 0.6248. Moreover, under setting [2], the raw is 0.9741. The z under setting [3] was 3.646.

Under setting [1], `Nc1cc(F)ccc1NC(=O)c1ccc(CNC(=O)/C=C/c2cccnc2)cc1` [Chidamide] yielded a cor. loess of 1.067 and a norm of 1.02. Further, the raw under setting [2] was determined as 0.9618. This molecule yielded a z under setting [3] of 7.547.

On to `CN(C)Cc1ccc(S(=O)(=O)n2ccc(/C=C/C(=O)NO)c2)cc1` [Resminostat], for which, under setting [1], the cor. loess is recorded as 0.8 and the norm amounted to 0.8939. For the same molecule, under setting [2], the raw is on record as 0.9656. Under setting [3], the z was found to be 6.242.

Under setting [1], `CO[C@H]1C[C@H](O[C@@H]2/C(C)=C/C[C@@H]3C[C@@H](C[C@]4(CC[C@H](C)[C@@H](C5CCCCC5)O4)O3)OC(=O)[C@@H]3C=C(C)/C(=N/O)[C@H]4OC/C(=C\C=C\[C@@H]2C)[C@]43O)O[C@@H](C)[C@@H]1O` [SELAMECTIN] returned a cor. loess of 0.533 and a norm of 0.5401. For the same molecule, the raw under setting [2] worked out at 0.9768. Also, the z under setting [3] came out at 7.251.

With `OC1(c2ccc(Cl)c(C(F)(F)F)c2)CCN(CCCC(c2ccc(F)cc2)c2ccc(F)cc2)CC1` [PENFLURIDOL], under setting [1], the cor. loess is listed as 2.248 and the norm came out at 2.491. Further, the raw under setting [2] stood at 0.9179. The same molecule gave a z under setting [3] of 30.59.

As for `O=c1[nH]c(=O)n([C@H]2C[C@H](O)[C@@H](CO)O2)cc1F` [FLOXURIDINE], under setting [1], the cor. loess was determined as 0.3344 and the norm is listed as 0.4513. Besides, the raw under setting [2] was 0.9795. Under setting [3], this molecule yielded a z of 4.549.

`Oc1cc(Cl)ccc1Oc1ccc(Cl)cc1Cl` [TRICLOSAN]: under setting [1], the cor. loess was 0.531 and the norm amounted to 0.5438. Further, under setting [2], the raw was determined as 0.9753. Under setting [3], this molecule displayed a z of 3.141.

Under setting [1], `CCC(=O)O[C@]1(C(=O)CCl)[C@@H](C)C[C@H]2[C@@H]3C[C@H](F)C4=CC(=O)C=C[C@]4(C)[C@@]3(F)[C@@H](O)C[C@@]21C` [Halobetasol Propionate] gave a cor. loess of 0.4055 and a norm of 0.3998. Further, the raw under setting [2] was found to be 0.9809. Under setting [3], this molecule registered a z of 4.335.

Under setting [1], `Cc1ccc(-c2nc3ccc(C)cn3c2CC(=O)N(C)C)cc1` [ZOLPIDEM] had a cor. loess of 0.2522 and a norm of 0.4412. Besides, the raw under setting [2] turned out to be 0.9798. For the same molecule, under setting [3], the z is 3.432.

For the molecule Aprotinin, under setting [1], the cor. loess is reported as 1.14 and the norm came out at 0.9994. Further, the raw under setting [2] was determined as 0.9662. Under setting [3], this molecule came in with a z of 4.093.

Molecule `CC[C@H]1CN2CCc3cc(OC)c(OC)cc3[C@@H]2C[C@@H]1C[C@H]1NCCc2cc(OC)c(OC)cc21` [EMETINE DIHYDROCHLORIDE] displayed a z of 11.78. Under setting [1], the cor. loess stood at 1.429 and the norm is recorded as 1.489. Also, the raw under setting [2] turned out to be 0.9485.

Under setting [1], `CCOC(=O)COc1ccc2c(=O)cc(-c3ccccc3)oc2c1` [EFLOXATE] registered a cor. loess of 1.468 and a norm of 1.397. Moreover, the raw under setting [2] was 0.955. Under setting [3], this molecule displayed a z of 5.713.

Under setting [1], `CC(=O)OCC(=O)[C@@]1(O)CC[C@H]2[C@@H]3CCC4=CC(=O)C=C[C@]4(C)[C@@]3(Cl)[C@@H](Cl)C[C@@]21C` [DICHLORISONE ACETATE] returned a cor. loess of 0.4911 and a norm of 0.4765. Under setting [2], the raw came out at 0.9771. Further, the z under setting [3] stood at 5.445.

As for `COc1cc([C@@H]2c3cc4c(cc3[C@@H](O[C@@H]3O[C@@H]5CO[C@@H](c6cccs6)O[C@H]5[C@H](O)[C@H]3O)[C@H]3COC(=O)[C@H]23)OCO4)cc(OC)c1O` [TENIPOSIDE], under setting [1], the cor. loess is 0.6446 and the norm is on record as 0.8759. The raw under setting [2] turned out to be 0.9667. Besides, the z under setting [3] was 8.769.

For the molecule `S=C(NCc1ccc2c(c1)OCO2)N1CCN(c2ncnc3c2oc2ccccc23)CC1` [Amuvatinib (MP-470), Amuvatinib], under setting [1], the cor. loess is on record as 0.5191 and the norm is 0.6031. Under setting [2], the raw came to 0.9748. The same molecule yielded a z under setting [3] of 4.05.

Under setting [1], `CC1(C)O[C@@H]2C[C@H]3[C@@H]4C[C@H](F)C5=CC(=O)C=C[C@]5(C)[C@H]4[C@@H](O)C[C@]3(C)[C@]2(C(=O)CO)O1` [FLUNISOLIDE] gave a cor. loess of 0.6279 and a norm of 0.6807. The raw under setting [2] is on record as 0.9737. Moreover, the z under setting [3] is given as 5.388.

As for `CC(=O)O[C@H]1C(=O)[C@@]2(C)[C@H]([C@H](OC(=O)c3ccccc3)[C@]3(O)C[C@H](OC(=O)[C@H](O)[C@@H](NC(=O)c4ccccc4)c4ccccc4)C(C)=C1C3(C)C)[C@]1(OC(C)=O)CO[C@@H]1C[C@@H]2O` [PACLITAXEL], under setting [1], the cor. loess is reported as 0.341 and the norm was 0.3501. Further, the raw under setting [2] is recorded as 0.9826. This molecule also registered a z under setting [3] of 4.64.

Under setting [1], `COc1cc2c(c(OC)c1OC)-c1ccc(OC)c(=O)cc1[C@@H](NC(C)=O)CC2` [COLCHICINE] showed a cor. loess of 0.7111 and a norm of 0.7731. Moreover, the raw under setting [2] turned out to be 0.9693. Under setting [3], this molecule gave a z of 5.86.

The molecule “GRAMICIDIN [GRAMICIDIN (gramicidin A shown)]” registered a z of 4.938. Moreover, under setting [1], the cor. loess is on record as 0.5992 and the norm is 0.7289. The raw under setting [2] is reported as 0.9705.

Regarding `CCOc1cc2ncc(C#N)c(Nc3ccc(F)c(Cl)c3)c2cc1NC(=O)/C=C/CN(C)C` [Pelitinib (EKB-569), Pelitinib], under setting [1], the cor. loess is listed as 0.7376 and the norm was found to be 0.828. The raw under setting [2] worked out at 0.9677. The z under setting [3] was 5.755.

For the molecule `O=C(Nc1ccc([N+](=O)[O-])cc1Cl)c1cc(Cl)ccc1O` [NICLOSAMIDE], under setting [1], the cor. loess is reported as 0.7224 and the norm is on record as 0.7648. Besides, the raw under setting [2] was determined as 0.97. The molecule further yielded a z under setting [3] of 9.828.

`[O-][n+]1ccccc1[S-].[O-][n+]1ccccc1[S-].[Zn+2]` [PYRITHIONE ZINC]: the raw is 0.8268 and 0.898; the z was 15.67 and 26.13.

Under setting [1], “ABAMECTIN [ABAMECTIN (avermectin B1a shown)]” returned a cor. loess of 0.4606 and a norm of 0.5009. Further, under setting [2], the raw is on record as 0.9779. Moreover, the z under setting [3] was 4.925.

Regarding `Nc1ccc2cc3ccc(N)cc3nc2c1` [PROFLAVINE HEMISULFATE], under setting [1], the cor. loess is 0.3381 and the norm is recorded as 0.2862. The raw under setting [2] is listed as 0.9828. Under setting [3], this molecule showed a z of 3.749.

For the molecule `Cc1oncc1C(=O)Nc1ccc(C(F)(F)F)cc1` [LEFLUNOMIDE], under setting [1], the cor. loess is reported as 0.3194 and the norm is listed as 0.3831. For the same molecule, the raw under setting [2] is given as 0.9816. Besides, the z under setting [3] came out at 4.346.
